Where a SMILES comes first, the peptide text is derived from it. Where no end group is shown, it is not given here. Side-chain parts run from the residue outwards. [ ]: non-standard residue; d: D form. β3hK = NCCCC[C@H](N)CC(=O)O; Ahx = NCCCCCC(=O)O
Key:
CD40-CD40L interaction [1] = biological target: T1, CD40-CD40L interaction (Homo sapiens, UniProt P25942); experiment: Expression of CD95 induced by CD40L on BL41 cells cultured with 3T6-CD40L fibroblasts (flow cytometry); type: cell-based; settings: for % of inhibition of the expression of CD95 induced by CD40L: BL41 + 3T6-CD40L, 48 hours; for effect on the expression of CD95 induced by CD40L (in words): BL41 cells in the presence of 3T6-CD40L cells, no concentration stated
T1 construct: they receive a signal via the CD40 molecule, which they express in a constitutive manner; endogenous in cells; host or cells: BL41 Burkitt's lymphoma cells (endogenous CD40), co-cultured with 3T6 fibroblasts transfected with CD40L
T1 sequence (P25942 21-277): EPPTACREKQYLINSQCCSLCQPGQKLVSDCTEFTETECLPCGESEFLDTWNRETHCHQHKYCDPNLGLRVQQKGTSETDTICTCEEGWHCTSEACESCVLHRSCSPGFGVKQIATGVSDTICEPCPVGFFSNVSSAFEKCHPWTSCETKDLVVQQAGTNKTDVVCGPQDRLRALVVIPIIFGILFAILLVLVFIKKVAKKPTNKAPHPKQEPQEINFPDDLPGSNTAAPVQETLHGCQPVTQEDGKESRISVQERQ
Experimental: Then, the affinity of these ligands for the CD40 molecule is evaluated using a biosensor (BIAcore™). The agonist or antagonist effect of the ligands was tested using two simple biological tests. In the first, the expression of the membranous molecule CD95 by transformed B cells (Burkitt's lymphoma) is studied after activation by the CD40-CD40L interaction (Schattner et al., 1996). In such a model, the CD40L partner is expressed on transfected fibroblasts (3T6-CD40L) (Buelens et al., 1997). The BL41 Burkitt's lymphoma cells are incubated with non-transfected 3T6 fibroblasts (FIGS. 3A and 3C) or with 3T6 fibroblasts transfected by CD40L (FIGS. 3B and 3D). After 48 hours, the expression of CD95 is evaluated by flow cytometry. The expression of CD95 is induced in the presence of CD40L (FIG. 3B). A commercial anti-CD40L antibody inhibits the consequences of the CD40-CD40L interaction (FIG. 3D).
The antagonist effect is evaluated by measurement of the decrease in the expression of CD95 induced by the CD40L in the presence of the different chemical ligands (see Table I). With the help of these tests, the most interesting ligands are chosen to evaluate their activity in vivo and in vitro in more complex models.
The lymphoma B cells express the CD95 molecule when they receive a signal via the CD40 molecule, which they express in a constitutive manner. This signal is generally conveyed by the CD40L (CD154) molecule expressed by another cell. The antagonist ligands inhibit the binding of CD40 on CD40L and thus […] the expression of CD95. The agonist ligands copy the CD40L molecule and induce the expression of CD95 even in the absence of the cell expressing CD40L.
The BL41 Burkitt's lymphoma cells (5.10^5/ml) are cultured in the presence of 3T6 fibroblasts (10^5/ml) transfected (3T6-CD40L) or not transfected with CD40L (3T6), and treated with mitomycin to stop their proliferation. The ligands are added at the start of the culture at the chosen concentration. After culture for 48 hours, expression of the CD95 molecule is measured by flow cytometry. The BL41 cells are distinguished from the fibroblasts using an anti-CD19 antibody (specific marker of the B cells).

CD40-CD40L interaction [2] = biological target: T1, CD40-CD40L interaction; experiment: as above; type: cell-based; settings: concentration of 50 μM
[3] = system: BL41 Burkitt's lymphoma cells; experiment: Inhibition of proliferation of BL41 cells (incorporation of tritiated thymidine); type: cell-based; settings: 24 hours culture, FIG. 4A, 50 μM to 50 nM
Experimental: Tritiated thymidine was added at a concentration of 1 μci/well (0.8.10^5 cells/well) for the last 8 hours of culture and the incorporation of tritiated thymidine measured using a gaseous scintillation β counter.
(§1) The second test is based on the property of certain B lymphomas to cease proliferation and enter apoptosis during the bridging of their membranous CD40 molecule (Tong et al., 1999). In this test, the BL41 cells are incubated with ligands CD40 and after 24 hours either the inhibition of proliferation of these cells is measured, by studying the incorporation of tritiated thymidine, or the percentage of apoptotic cells is measured with a flow cytometry study (FIGS. 4A and 4B).
(§2) Certain B lymphomas enter apoptosis when their CD40 molecule is bridged by an anti-CD40 antibody or by CD40L which is soluble independently from the CD95 molecule. This induction of apoptosis is expressed as a decrease in proliferation measured by the incorporation of tritiated thymidine. The agonist ligands of CD40 will induce an increase in apoptosis and as a result a decrease in the incorporation of tritiated thymidine.
The BL41 Burkitt's lymphoma cells (4.10^5/mL) are cultured in the presence of the different ligands at the chosen concentration. After 24 hours, the cells are either incubated for 8 hours with tritiated thymidine (1 μci/well) to measure the proliferation or are labelled with Annexin V-FITC and propidium iodide to evaluate the percentage of apoptotic cells with flow cytometry.

[4] = biological target: T2, human CD40 muIg fusion protein (UniProt P01863+P25942); experiment: Biacore3000 surface plasmon resonance study of the CD40/CD40L interaction and the ligands; type: binding; settings: in the presence of 100 nM of CD40L
T2 construct: purchased ANCELL Corporation, Bayport, Minn
T2 sequence (P25942+P01863 fused): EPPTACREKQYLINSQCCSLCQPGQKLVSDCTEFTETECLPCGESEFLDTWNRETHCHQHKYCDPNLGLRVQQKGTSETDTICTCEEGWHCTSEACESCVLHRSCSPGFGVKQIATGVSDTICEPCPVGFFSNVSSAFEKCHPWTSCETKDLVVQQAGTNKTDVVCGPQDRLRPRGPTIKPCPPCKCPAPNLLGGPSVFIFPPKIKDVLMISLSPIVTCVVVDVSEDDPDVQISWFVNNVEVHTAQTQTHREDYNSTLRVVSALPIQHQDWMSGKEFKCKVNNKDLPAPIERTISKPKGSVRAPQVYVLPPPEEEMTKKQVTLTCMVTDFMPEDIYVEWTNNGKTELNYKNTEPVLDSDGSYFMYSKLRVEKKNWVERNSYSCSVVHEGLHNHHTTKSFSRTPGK
Source text: The Biacore3000 is a device which allows the interactions between two molecules to be studied, based on the surface plasmon resonance. It allows measurement in real time, and therefore allows the kinetics of interaction (association and disassociation) of an analyte (which is in an injected solution) and of a ligand (immobilised on a microchip supporting the measurement) to be monitored. The kinetic measurements at different concentrations of analyte allow calculation of the affinity constants of the interaction between the ligand and the analytes. The microchip contains four cells for different measurements, which allows direct comparison of a reference cell on which a protein which is not pertinent (protein which has no affinity with the ligand studied), but close to the ligand is immobilised with the cell on which the ligand is immobilised.
(§3) Rabbit antibodies directed against the constant region of mouse immunoglobulins were immobilized on a microchip. In the reference cell a monoclonal mouse antibody of isotype IgG2a (LG112) at 40 nM is immobilized with a flow of 5 μL/min for 2 minutes; in the cell of the ligand the recombinant CD40 associated with the constant region of the mouse IgG2a heavy chain (human CD40 muIg fusion protein, ANCELL Corporation, Bayport, Minn.) is immobilized under the same conditions.
On the two cells (reference and ligand), the CD40L (human CD154 muCD8 fusion protein, ANCELL Corporation) at different concentrations or the CD40L at a concentration of 1 μM or of 125 nM, are injected, as analyte, in the presence of different concentrations of ligands. The flow in the presence of the analytes is 10 μL/min for 5 minutes to study the association and, in the absence of analytes, the conditions are the same to study the dissociation.
In order to regenerate the cells (i.e. remove all the proteins adsorbed in a non-covalent manner), a solution of 10 mM of HCl is injected at 5 μL/min for 1 minute. The cells are then ready for another analysis.

[5] = system: BL41 Burkitt's lymphoma cells; experiment: Apoptosis of BL41 cells (Annexin V-FITC / propidium iodide flow cytometry); type: cell-based; settings: 24 hours culture, FIG. 4B, 50 to 6 μM
Experimental: Apoptosis is measured by flow cytometry after labelling with annexin V FITC and propidium iodide. Cells labelled with annexin V alone or with annexin V and propidium iodide are considered apoptotic. The percentage of specific apoptosis is calculated by the following formula: [(% apoptosis with ligand−% apoptosis without ligand)/(100−% apoptosis without ligand)]×100
as §1, §2
The BL41 Burkitt's lymphoma cells (4.10^5/mL) are cultured in the presence of the different ligands at the chosen concentration. […]

[6] = biological target: T3, human CD40 muIg fusion protein (recombinant CD40 associated with the constant region of the mouse IgG2a heavy … (human; mouse, UniProt P25942 21-193, limits assumed); experiment: SPR (Biacore 3000), kinetic analysis with 2.5 µM L3 in the presence of 125 nM CD40L over captured CD40 muIg
T3 construct: Bought reagent; Captured on the Biacore chip through rabbit anti-mouse immunoglobulin antibodies; not shown: constant region of the mouse IgG2a heavy chain
T3 sequence (P25942 21-193 limits assumed): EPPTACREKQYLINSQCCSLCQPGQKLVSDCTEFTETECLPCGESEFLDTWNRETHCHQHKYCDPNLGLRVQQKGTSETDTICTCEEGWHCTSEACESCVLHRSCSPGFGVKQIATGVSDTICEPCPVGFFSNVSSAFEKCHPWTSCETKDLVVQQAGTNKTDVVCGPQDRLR
Experimental: as §3, with “µL/min” for “μL/min”
(§4) The flow in the presence of the analytes is 10 µL/min for 5 minutes to study the association and, in the absence of analytes, the conditions are the same to study the dissociation.

[7] = biological target: T3, human CD40 muIg fusion protein …; experiment: SPR (Biacore 3000), inhibition of the binding of 100 nM CD40L to captured CD40 muIg
Experimental: as §3, with “µL/min” for “μL/min”
as §4
(§5) The association of L4, L7 (and of its derivatives), L8, L9 L11 and L12 was studied in the presence of 100 nM of CD40L. Only the L4 and L9 molecules bind to CD40 and displace CD40L. The kinetic analysis in the presence of 40 and 80 nM of L4 produced an equilibrium constant for L4 of 180 nM.

[8] = biological target: T3, human CD40 muIg fusion protein …; experiment: SPR (Biacore 3000), kinetic analysis with 40 and 80 nM L4 in the presence of 100 nM CD40L over captured CD40 muIg
Experimental: as §3, with “µL/min” for “μL/min”
as §4, §5

C[C@H]1NC(=O)[C@H](CCCCNC(=O)CCCCCNC(=O)[C@H](Cc2ccc(O)cc2)NC(=O)[C@H](Cc2ccc(O)cc2)NC(=O)CNC(=O)[C@@H](N)CCCCN)NC(=O)[C@@H](C)NC(=O)[C@H](CCCCNC(=O)CCCCCNC(=O)[C@H](Cc2ccc(O)cc2)NC(=O)[C@H](Cc2ccc(O)cc2)NC(=O)CNC(=O)[C@@H](N)CCCCN)NC(=O)[C@@H](C)NC(=O)[C@H](CCCCNC(=O)CCCCCNC(=O)[C@H](Cc2ccc(O)cc2)NC(=O)[C@H](Cc2ccc(O)cc2)NC(=O)CNC(=O)[C@@H](N)CCCCN)NC1=O [L4] (cyclo(K([Ahx-Tyr-Tyr-Gly-Lys])[dA]K([Ahx-Tyr-Tyr-Gly-Lys])[dA]K([Ahx-Tyr-Tyr-Gly-Lys])[dA]))
% of inhibition of the expression of CD95 induced by CD40L (CD40-CD40L interaction [1]; ligand 0.5 μM): 19% | % of inhibition of the expression of CD95 induced by CD40L (CD40-CD40L interaction [1]; ligand 5 μM): 36% | % of inhibition of the expression of CD95 induced by CD40L (CD40-CD40L interaction [1]; ligand 10 μM): 40% | % of inhibition of the expression of CD95 induced by CD40L (CD40-CD40L interaction [1]; ligand 50 μM): 22% | cell mortality (CD40-CD40L interaction [2]): substantial cell mortality

NCCCC[C@H](N)C(=O)NCC(=O)N[C@@H](Cc1ccc(O)cc1)C(=O)N[C@@H](Cc1ccc(O)cc1)C(=O)NCCCCCC(=O)NCCCOCC(COCCCNC(=O)CCCCCNC(=O)[C@H](Cc1ccc(O)cc1)NC(=O)[C@H](Cc1ccc(O)cc1)NC(=O)CNC(=O)[C@@H](N)CCCCN)(COCCCNC(=O)CCCCCNC(=O)[C@H](Cc1ccc(O)cc1)NC(=O)[C@H](Cc1ccc(O)cc1)NC(=O)CNC(=O)[C@@H](N)CCCCN)NC(=O)CCC(N)=O [L7]
effect on the expression of CD95 induced by CD40L (in words) (CD40-CD40L interaction [1]): no effect | % of inhibition of the expression of CD95 induced by CD40L (CD40-CD40L interaction [1]; ligand 0.5 μM): 0% | % of inhibition of the expression of CD95 induced by CD40L (CD40-CD40L interaction [1]; ligand 5 μM): 0% | % of inhibition of the expression of CD95 induced by CD40L (CD40-CD40L interaction [1]; ligand 50 μM): 0% | inhibition of the proliferation of BL41 cells (in words) [3]: only have a small or no effect | binding to CD40 and displacement of CD40L (in words) [4]: Only the L4 and L9 molecules bind to CD40

L4a: same core molecule as L4 but only 2 examples of the peptide sequence (chain [dA]K[dA]K[dA]K; peptide H-KGYY[Ahx]; also: two copies of chain 2 linked via Ahx to two Lys ε-amines of chain 1, which Lys not given here, head-to-tail to a chain's N/C-terminus)
effect on the expression of CD95 induced by CD40L (in words) (CD40-CD40L interaction [1]): only very weakly inhibits | % of inhibition of the expression of CD95 induced by CD40L (CD40-CD40L interaction [1]; ligand 0.5 μM): 0% | % of inhibition of the expression of CD95 induced by CD40L (CD40-CD40L interaction [1]; ligand 5 μM): 8% | % of inhibition of the expression of CD95 induced by CD40L (CD40-CD40L interaction [1]; ligand 50 μM): 13% | apoptosis of BL41 cells (in words) [5]: very weak apoptosis

L11: constituted by the single peptide sequence (KGYY-{Ahx-OH})
apoptosis of BL41 cells (in words) [5]: no effect | binding to CD40 and displacement of CD40L (in words) [4]: Only the L4 and L9 molecules bind to CD40

B1: Compound L3 (ligand L3) (peptide)
chain: KKKKA
peptide: KGYY
modifications: also: core Lys joined through epsilon-amines (isopeptide bonds), KGYY arms on free amines of core Lys, Tyr C-terminus amide-linked directly to core amine, no spacer
notes: also called linear ligand
Kd [6]: 10000 nM

B2: Compound L4 (ligand L4): cyclic core structure with 3 examples of the peptide sequence mimicking the CD40-CD40L interface (peptide)
chain: [dA]K[dA]K[dA]K
peptide: H-KGYY[Ahx]
modifications: also: three H-KGYY-Ahx- arms, one on the epsilon-amine of each core Lys, head-to-tail to a chain's N/C-terminus
IC50 [7]: 80 nM | Kd [8]: 180 nM

B3: Compound L9 (ligand L9): cyclic core structure different from that of L4 with 3 examples of the same peptide sequence (peptide)
chain: [β3hK]-[β3hK]-[β3hK]
peptide: H-KGYY[Ahx]
modifications: also: three H-KGYY-Ahx- arms, one on each side-chain amine of the core, head-to-tail to a chain's N/C-terminus
IC50 [7]: < 50 nM

B4: soluble CD40L: soluble CD40L molecule used as positive control on BL41 cells (protein)
chain: MQKGDQNPQIAAHVISEASSKTTSVLQWAEKGYYTMSNNLVTLENGKQLTVKRQGLYYIYAQVTFCSNREASSQAPFIASLCLKSPGRFERILLRAANTHSSAKPCGQQSIHLGGVFELQPGASVFVNVTDPSQVSHGTGFTSFGLLKL
inhibition of the proliferation of BL41 cells (in words) [3]: greatly inhibits

Source: US7741280B2, “Multimeric molecules, the preparation method thereof and use of same for the preparation of medicaments” (Centre National de la Recherche Scientifique, priority 2002, dated 2010)
